Reference: the OligoGym collection
HELM strings list units from the 5' end as sugar, base in round brackets, then linkage (d deoxyribose, r ribose, m 2'-O-methyl, p phosphodiester). Strings are as the collection lists them; they lack the last nucleoside at the 3' end of the tested compound. [moe] = 2'-O-(2-methoxyethyl) (MOE); [sp] = phosphorothioate linkage; [m5C] = 5-methylcytosine

target: UBE3A-ATS; experiment: mouse, dose not given; conditions: ASO

Point of comparison: “RNA1{[moe](T)[sp].[moe](T)p.[moe](T)p.[moe](T)p.d(T)[sp].d([m5C])[sp].d([m5C])[sp].d(A)[sp].d(T)[sp].d(T)[sp].d(T)[sp].d(T)[sp].d(T)[sp].d([m5C])[sp].[moe](T)p.[moe]([m5C])p.[moe](T)p.[moe](T)[sp].[moe](A)}$$$$ (last 3' nucleoside missing)”, 3 h FOB score 1 score 0-7. Against it:
- RNA1{[moe](T)[sp].[moe](T)p.[moe](G)p.[moe](G)p.[moe]([m5C])p.d(A)[sp].d([m5C])[sp].d(A)[sp].d([m5C])[sp].d([m5C])[sp].d(T)[sp].d(G)[sp].d(G)[sp].d(A)[sp].d(T)[sp].[moe](T)p.[moe](T)p.[moe]([m5C])[sp].[moe](A)}$$$$ (last 3' nucleoside missing) — higher, 2 score 0-7
- RNA1{[moe](T)[sp].[moe](T)p.[moe](G)p.[moe](G)p.[moe]([m5C])p.d(T)[sp].d(T)[sp].d(T)[sp].d(A)[sp].d(T)[sp].d(A)[sp].d([m5C])[sp].d(T)[sp].d(T)[sp].d(T)[sp].[moe](A)p.[moe]([m5C])p.[moe]([m5C])[sp].[moe]([m5C])}$$$$ (last 3' nucleoside missing) — the same, 1 score 0-7
- RNA1{[moe](T)[sp].[moe](T)p.[moe](G)p.[moe](G)p.d(T)[sp].d([m5C])[sp].d(A)[sp].d(T)[sp].d([m5C])[sp].d(T)[sp].d([m5C])[sp].d(G)[sp].d(G)[sp].d(G)[sp].[moe](T)p.[moe](A)p.[moe](T)p.[moe](A)[sp].[moe](T)}$$$$ (last 3' nucleoside missing) — higher, 4 score 0-7
- RNA1{[moe](T)[sp].[moe](T)p.[moe](G)p.[moe](T)p.[moe](A)p.d(G)[sp].d([m5C])[sp].d(T)[sp].d(A)[sp].d(T)[sp].d(A)[sp].d(G)[sp].d(G)[sp].d(T)[sp].d(G)[sp].[moe](T)p.[moe]([m5C])p.[moe](A)[sp].[moe]([m5C])}$$$$ (last 3' nucleoside missing) — higher, 4 score 0-7
- RNA1{[moe](T)[sp].[moe](T)p.[moe](G)p.[moe]([m5C])p.[moe](T)p.[moe](G)p.d(A)[sp].d(T)[sp].d([m5C])[sp].d(A)[sp].d([m5C])[sp].d(A)[sp].d(T)[sp].d(T)[sp].d(A)[sp].d([m5C])[sp].[moe]([m5C])p.[moe]([m5C])[sp].[moe](A)}$$$$ (last 3' nucleoside missing) — the same, 1 score 0-7
- RNA1{[moe](T)[sp].[moe](T)p.[moe](G)p.[moe]([m5C])p.[moe](T)p.d(G)[sp].d(A)[sp].d(T)[sp].d([m5C])[sp].d(A)[sp].d([m5C])[sp].d(A)[sp].d(T)[sp].d(T)[sp].d(A)[sp].[moe]([m5C])p.[moe]([m5C])p.[moe]([m5C])[sp].[moe](A)}$$$$ (last 3' nucleoside missing) — lower, 0 score 0-7
- RNA1{[moe](T)[sp].[moe](T)p.[moe](G)p.[moe]([m5C])p.d(T)[sp].d(G)[sp].d(A)[sp].d(T)[sp].d([m5C])[sp].d(A)[sp].d([m5C])[sp].d(A)[sp].d(T)[sp].d(T)[sp].[moe](A)p.[moe]([m5C])p.[moe]([m5C])p.[moe]([m5C])[sp].[moe](A)}$$$$ (last 3' nucleoside missing) — lower, 0 score 0-7
- RNA1{[moe](T)[sp].[moe](T)p.[moe](T)p.[moe](A)p.[moe](G)p.d(G)[sp].d(T)[sp].d([m5C])[sp].d(A)[sp].d(A)[sp].d([m5C])[sp].d([m5C])[sp].d(A)[sp].d(A)[sp].d(T)[sp].[moe](T)p.[moe](T)p.[moe](G)[sp].[moe]([m5C])}$$$$ (last 3' nucleoside missing) — lower, 0 score 0-7
- RNA1{[moe](T)[sp].[moe](T)p.[moe](T)p.[moe](A)p.[moe](T)p.d(A)[sp].d(G)[sp].d(G)[sp].d(G)[sp].d(T)[sp].d(G)[sp].d(G)[sp].d(T)[sp].d(T)[sp].d(G)[sp].[moe](G)p.[moe](T)p.[moe](T)[sp].[moe]([m5C])}$$$$ (last 3' nucleoside missing) — higher, 6 score 0-7
- RNA1{[moe](T)[sp].[moe](T)p.[moe](T)p.[moe](A)p.[moe](T)p.d(A)[sp].d([m5C])[sp].d(T)[sp].d(T)[sp].d(T)[sp].d(A)[sp].d([m5C])[sp].d([m5C])[sp].d([m5C])[sp].d(A)[sp].[moe](A)p.[moe]([m5C])p.[moe](T)[sp].[moe](T)}$$$$ (last 3' nucleoside missing) — lower, 0 score 0-7
- RNA1{[moe](T)[sp].[moe](T)p.[moe](T)p.[moe](A)p.[moe](T)p.d(T)[sp].d(G)[sp].d(G)[sp].d(T)[sp].d([m5C])[sp].d(A)[sp].d(T)[sp].d([m5C])[sp].d(T)[sp].d([m5C])[sp].[moe](G)p.[moe](G)p.[moe](G)[sp].[moe](T)}$$$$ (last 3' nucleoside missing) — higher, 3.7 score 0-7
- RNA1{[moe](T)[sp].[moe](T)p.[moe](T)p.[moe](G)p.[moe](G)p.d(T)[sp].d(A)[sp].d(T)[sp].d(T)[sp].d(G)[sp].d(A)[sp].d([m5C])[sp].d(A)[sp].d([m5C])[sp].d([m5C])[sp].[moe](T)p.[moe]([m5C])p.[moe]([m5C])[sp].[moe](A)}$$$$ (last 3' nucleoside missing) — higher, 3.7 score 0-7
- RNA1{[moe](T)[sp].[moe](T)p.[moe](T)p.[moe](G)p.[moe](G)p.d([m5C])[sp].d(T)[sp].d(T)[sp].d(T)[sp].d(A)[sp].d(T)[sp].d(A)[sp].d([m5C])[sp].d(T)[sp].d(T)[sp].[moe](T)p.[moe](A)p.[moe]([m5C])[sp].[moe]([m5C])}$$$$ (last 3' nucleoside missing) — lower, 0 score 0-7
- RNA1{[moe](T)[sp].[moe](T)p.[moe](T)p.[moe](G)p.[moe](T)p.d(A)[sp].d(G)[sp].d([m5C])[sp].d(T)[sp].d(A)[sp].d(T)[sp].d(A)[sp].d(G)[sp].d(G)[sp].d(T)[sp].[moe](G)p.[moe](T)p.[moe]([m5C])[sp].[moe](A)}$$$$ (last 3' nucleoside missing) — higher, 2.3 score 0-7
- RNA1{[moe](T)[sp].[moe](T)p.[moe](T)p.[moe](G)p.[moe]([m5C])p.d(T)[sp].d(T)[sp].d(T)[sp].d(T)[sp].d([m5C])[sp].d(A)[sp].d(G)[sp].d(T)[sp].d([m5C])[sp].d(A)[sp].[moe](G)p.[moe](G)p.[moe](T)[sp].[moe](A)}$$$$ (last 3' nucleoside missing) — the same, 1 score 0-7
- RNA1{[moe](T)[sp].[moe](T)p.[moe](T)p.[moe](T)p.[moe](A)p.d(T)[sp].d(T)[sp].d(G)[sp].d(G)[sp].d(T)[sp].d([m5C])[sp].d(A)[sp].d(T)[sp].d([m5C])[sp].d(T)[sp].[moe]([m5C])p.[moe](G)p.[moe](G)[sp].[moe](G)}$$$$ (last 3' nucleoside missing) — higher, 2.3 score 0-7
- RNA1{[moe](T)[sp].[moe](T)p.[moe](T)p.[moe](T)p.[moe](T)p.[moe]([m5C])p.d([m5C])[sp].d(A)[sp].d(T)[sp].d(T)[sp].d(T)[sp].d(T)[sp].d(T)[sp].d([m5C])[sp].d(T)[sp].d([m5C])[sp].[moe](T)p.[moe](T)[sp].[moe](A)}$$$$ (last 3' nucleoside missing) — the same, 1 score 0-7
- RNA1{[moe](T)[sp].[moe](T)p.[moe](T)p.[moe](T)p.[moe](T)p.d([m5C])[sp].d([m5C])[sp].d(A)[sp].d(T)[sp].d(T)[sp].d(T)[sp].d(T)[sp].d(T)[sp].d([m5C])[sp].d(T)[sp].[moe]([m5C])p.[moe](T)p.[moe](T)[sp].[moe](A)}$$$$ (last 3' nucleoside missing) — higher, 1.3 score 0-7
- RNA1{[moe](T)[sp].[moe](T)p.[moe](T)p.[moe]([m5C])p.[moe](A)p.d(T)[sp].d([m5C])[sp].d(A)[sp].d(G)[sp].d(T)[sp].d(T)[sp].d(A)[sp].d(G)[sp].d(T)[sp].d([m5C])[sp].[moe](A)p.[moe](G)p.[moe](G)[sp].[moe](T)}$$$$ (last 3' nucleoside missing) — higher, 2 score 0-7
- RNA1{[moe](T)[sp].[moe](T)p.[moe]([m5C])p.[moe](A)[sp].d([m5C])[sp].d([m5C])[sp].d(A)[sp].d(T)[sp].d(T)[sp].d(T)[sp].d(T)[sp].d(G)[sp].[moe](A)p.[moe]([m5C])p.[moe]([m5C])p.[moe](T)[sp].[moe](T)}$$$$ (last 3' nucleoside missing) — lower, 0 score 0-7
- RNA1{[moe](T)[sp].[moe](T)p.[moe]([m5C])p.[moe](A)p.[moe](T)p.d([m5C])[sp].d(A)[sp].d(G)[sp].d(T)[sp].d(T)[sp].d(A)[sp].d(G)[sp].d(T)[sp].d([m5C])[sp].d(A)[sp].[moe](G)p.[moe](G)p.[moe](T)[sp].[moe](T)}$$$$ (last 3' nucleoside missing) — higher, 4 score 0-7
- RNA1{[moe](T)[sp].[moe](T)p.[moe]([m5C])p.[moe](A)p.[moe]([m5C])p.[moe]([m5C])p.d(A)[sp].d(T)[sp].d(T)[sp].d(T)[sp].d(T)[sp].d(G)[sp].d(A)[sp].d([m5C])[sp].d([m5C])[sp].d(T)[sp].[moe](T)p.[moe]([m5C])[sp].[moe](T)}$$$$ (last 3' nucleoside missing) — lower, 0 score 0-7
- RNA1{[moe](T)[sp].[moe](T)p.[moe]([m5C])p.[moe](A)p.[moe]([m5C])p.d([m5C])[sp].d(A)[sp].d(T)[sp].d(T)[sp].d(T)[sp].d(T)[sp].d(G)[sp].d(A)[sp].d([m5C])[sp].d([m5C])[sp].[moe](T)p.[moe](T)p.[moe]([m5C])[sp].[moe](T)}$$$$ (last 3' nucleoside missing) — the same, 1 score 0-7
- RNA1{[moe](T)[sp].[moe](T)p.[moe]([m5C])p.[moe](A)p.d([m5C])[sp].d([m5C])[sp].d(A)[sp].d(T)[sp].d(T)[sp].d(T)[sp].d(T)[sp].d(G)[sp].d(A)[sp].d([m5C])[sp].[moe]([m5C])p.[moe](T)p.[moe](T)p.[moe]([m5C])[sp].[moe](T)}$$$$ (last 3' nucleoside missing) — the same, 1 score 0-7
- RNA1{[moe](T)[sp].[moe](T)p.[moe]([m5C])p.[moe](T)p.[moe](G)p.d(G)[sp].d(A)[sp].d(A)[sp].d(T)[sp].d([m5C])[sp].d(T)[sp].d(T)[sp].d(G)[sp].d(T)[sp].d(A)[sp].[moe](G)p.[moe](A)p.[moe](G)[sp].[moe](G)}$$$$ (last 3' nucleoside missing) — higher, 3 score 0-7
